Results reported in patent US11981658B2, “Substituted aminopyridine compounds as EGFR inhibitors” (YUHAN CORPORATION, priority 2021, dated 2024).
Where two headings read alike, the source gives them in different places.

Columns and labels:
EGFR Del19/T790M/C797S = EGFR Del19/T790M/C797S (Homo sapiens, UniProt P00533, C797S/DEL746-750/T790M); assay: Biochemical EGFR kinase inhibition assay (Lance Ultra TR-FRET), triple mutant del19/T790M/C797S
Method in brief: (§1)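 Enzyme reactions lasted 1 hour at room temperature with test compounds between 0.003 and 10 μM, followed by 10 mM EDTA quench.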

EGFR L858R/T790M/C797S = EGFR L858R/T790M/C797S (Homo sapiens, UniProt P00533, C797S/L858R/T790M); assay: Biochemical EGFR kinase inhibition assay (Lance Ultra TR-FRET), triple mutant L858R/T790M/C797S
Sequence of EGFR L858R/T790M/C797S (P00533 25-1210 T790M/C797S/L858R): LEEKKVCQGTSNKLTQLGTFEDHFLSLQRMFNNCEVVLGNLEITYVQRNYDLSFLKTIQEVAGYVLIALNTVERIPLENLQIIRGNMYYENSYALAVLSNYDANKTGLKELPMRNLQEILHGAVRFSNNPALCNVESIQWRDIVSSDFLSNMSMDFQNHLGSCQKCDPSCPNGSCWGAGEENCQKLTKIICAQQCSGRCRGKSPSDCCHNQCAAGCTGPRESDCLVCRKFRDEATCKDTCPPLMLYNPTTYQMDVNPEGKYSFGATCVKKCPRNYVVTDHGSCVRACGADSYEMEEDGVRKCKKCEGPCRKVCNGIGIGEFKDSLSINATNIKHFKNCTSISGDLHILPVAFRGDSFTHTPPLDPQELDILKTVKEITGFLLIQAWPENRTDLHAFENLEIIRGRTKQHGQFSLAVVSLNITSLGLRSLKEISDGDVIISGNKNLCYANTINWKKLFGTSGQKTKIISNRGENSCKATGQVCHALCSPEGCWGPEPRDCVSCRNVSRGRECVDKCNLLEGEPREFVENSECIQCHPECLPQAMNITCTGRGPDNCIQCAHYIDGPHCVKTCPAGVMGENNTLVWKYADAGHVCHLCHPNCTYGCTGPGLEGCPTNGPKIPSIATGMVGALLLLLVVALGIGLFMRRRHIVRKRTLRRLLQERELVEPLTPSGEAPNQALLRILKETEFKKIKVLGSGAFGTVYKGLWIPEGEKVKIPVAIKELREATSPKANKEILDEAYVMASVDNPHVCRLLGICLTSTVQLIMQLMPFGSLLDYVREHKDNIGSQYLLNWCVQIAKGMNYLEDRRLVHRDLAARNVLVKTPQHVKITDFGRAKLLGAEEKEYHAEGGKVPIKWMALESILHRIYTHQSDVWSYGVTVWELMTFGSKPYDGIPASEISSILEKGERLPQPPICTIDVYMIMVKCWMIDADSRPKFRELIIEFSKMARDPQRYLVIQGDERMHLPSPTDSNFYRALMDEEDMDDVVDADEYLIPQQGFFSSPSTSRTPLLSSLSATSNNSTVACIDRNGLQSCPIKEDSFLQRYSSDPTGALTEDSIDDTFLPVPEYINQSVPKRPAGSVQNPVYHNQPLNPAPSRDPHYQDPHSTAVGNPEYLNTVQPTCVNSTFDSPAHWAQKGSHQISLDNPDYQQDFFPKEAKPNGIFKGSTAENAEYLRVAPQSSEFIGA
Method in brief: as §1

EGFR Del19/C797S = EGFR Del19/C797S (Homo sapiens, UniProt P00533, C797S/DEL746-750); assay: Biochemical EGFR kinase inhibition assay (Lance Ultra TR-FRET), double mutant del19/C797S
Method in brief: as §1

EGFR L858R/C797S = EGFR L858R/C797S (Homo sapiens, UniProt P00533, C797S/L858R); assay: Biochemical EGFR kinase inhibition assay (Lance Ultra TR-FRET), double mutant L858R/C797S
Sequence of EGFR L858R/C797S (P00533 25-1210 C797S/L858R): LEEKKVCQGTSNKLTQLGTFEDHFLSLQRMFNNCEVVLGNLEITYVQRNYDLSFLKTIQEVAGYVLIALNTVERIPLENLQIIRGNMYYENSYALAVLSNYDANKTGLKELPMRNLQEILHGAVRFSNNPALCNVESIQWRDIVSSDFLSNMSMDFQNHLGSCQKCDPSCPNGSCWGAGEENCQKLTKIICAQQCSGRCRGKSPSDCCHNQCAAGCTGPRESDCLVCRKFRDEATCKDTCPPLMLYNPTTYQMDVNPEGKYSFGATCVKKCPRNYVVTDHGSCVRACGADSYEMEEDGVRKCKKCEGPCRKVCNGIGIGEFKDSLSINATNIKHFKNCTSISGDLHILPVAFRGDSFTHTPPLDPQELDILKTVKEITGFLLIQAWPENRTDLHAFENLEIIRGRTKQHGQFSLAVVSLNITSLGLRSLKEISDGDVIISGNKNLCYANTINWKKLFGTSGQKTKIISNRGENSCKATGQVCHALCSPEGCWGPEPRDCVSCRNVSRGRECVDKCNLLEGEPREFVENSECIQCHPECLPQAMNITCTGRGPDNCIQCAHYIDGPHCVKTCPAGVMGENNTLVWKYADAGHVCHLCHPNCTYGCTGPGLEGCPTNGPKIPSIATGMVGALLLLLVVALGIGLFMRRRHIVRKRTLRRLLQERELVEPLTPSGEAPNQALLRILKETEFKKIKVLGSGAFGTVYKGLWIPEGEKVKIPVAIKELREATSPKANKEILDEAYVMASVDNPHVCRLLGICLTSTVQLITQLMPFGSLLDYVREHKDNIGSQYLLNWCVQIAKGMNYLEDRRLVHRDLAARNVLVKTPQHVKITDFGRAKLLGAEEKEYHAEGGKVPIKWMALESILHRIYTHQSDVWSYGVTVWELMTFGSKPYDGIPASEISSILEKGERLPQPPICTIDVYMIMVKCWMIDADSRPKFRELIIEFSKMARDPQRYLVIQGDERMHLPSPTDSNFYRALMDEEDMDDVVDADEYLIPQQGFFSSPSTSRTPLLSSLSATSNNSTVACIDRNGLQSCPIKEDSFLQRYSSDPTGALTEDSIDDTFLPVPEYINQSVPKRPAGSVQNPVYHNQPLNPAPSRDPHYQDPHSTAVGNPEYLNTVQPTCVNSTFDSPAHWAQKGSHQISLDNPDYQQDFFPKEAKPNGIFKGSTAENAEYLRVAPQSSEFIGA
Method in brief: as §1

EGFR wildtype (WT) = EGFR wildtype (WT) (Homo sapiens, UniProt P00533); assay: Biochemical EGFR kinase inhibition assay (Lance Ultra TR-FRET), wildtype
Sequence of EGFR wildtype (WT) (P00533 25-1210): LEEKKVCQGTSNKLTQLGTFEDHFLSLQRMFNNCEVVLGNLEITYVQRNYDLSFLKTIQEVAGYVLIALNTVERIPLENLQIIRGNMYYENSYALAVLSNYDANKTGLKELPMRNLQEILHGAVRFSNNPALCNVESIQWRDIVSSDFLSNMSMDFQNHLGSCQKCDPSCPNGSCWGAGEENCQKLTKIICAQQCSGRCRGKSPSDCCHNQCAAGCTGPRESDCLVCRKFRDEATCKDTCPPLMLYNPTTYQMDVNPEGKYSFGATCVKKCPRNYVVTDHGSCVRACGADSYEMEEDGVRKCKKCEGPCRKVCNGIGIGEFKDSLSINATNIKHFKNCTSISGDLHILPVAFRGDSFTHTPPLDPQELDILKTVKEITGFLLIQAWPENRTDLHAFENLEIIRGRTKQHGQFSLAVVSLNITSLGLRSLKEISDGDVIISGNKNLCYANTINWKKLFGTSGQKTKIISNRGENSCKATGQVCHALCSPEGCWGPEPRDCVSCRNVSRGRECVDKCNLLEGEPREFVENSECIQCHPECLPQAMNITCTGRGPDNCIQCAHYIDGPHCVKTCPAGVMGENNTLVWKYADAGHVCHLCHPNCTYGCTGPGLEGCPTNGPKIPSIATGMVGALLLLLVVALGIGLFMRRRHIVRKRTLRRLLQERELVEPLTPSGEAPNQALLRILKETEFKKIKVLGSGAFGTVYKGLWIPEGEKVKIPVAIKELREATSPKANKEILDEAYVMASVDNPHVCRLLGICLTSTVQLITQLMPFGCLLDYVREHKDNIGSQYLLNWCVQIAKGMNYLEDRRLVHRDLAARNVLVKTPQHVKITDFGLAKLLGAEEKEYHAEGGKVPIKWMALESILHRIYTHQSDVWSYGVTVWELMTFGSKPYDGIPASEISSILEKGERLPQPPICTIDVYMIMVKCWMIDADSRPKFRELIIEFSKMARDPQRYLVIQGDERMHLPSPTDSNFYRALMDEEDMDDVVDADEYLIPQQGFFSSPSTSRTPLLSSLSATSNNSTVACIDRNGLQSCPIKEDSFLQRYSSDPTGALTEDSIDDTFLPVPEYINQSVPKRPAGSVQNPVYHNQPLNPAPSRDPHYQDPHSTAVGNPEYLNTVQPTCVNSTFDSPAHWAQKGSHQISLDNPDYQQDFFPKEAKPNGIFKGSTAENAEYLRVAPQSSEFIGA
Method in brief: as §1

[1] = IC50 Del19/T790M/C797S (nM), 100 μM ATP
[2] = Km ATP, read-out: IC50 Del19/T790M/C797S (nM), Km ATP
[3] = IC50 L858R/T790M/C797S (nM), 100 μM ATP
[4] = Km ATP, read-out: IC50 L858R/T790M/C797S (nM), Km ATP
[5] = IC50 Del19/C797S (nM), 100 μM ATP
[6] = Km ATP, read-out: IC50 Del19/C797S (nM), Km ATP
[7] = IC50 L858R/C797S (nM), 100 μM ATP
[8] = Km ATP, read-out: IC50 L858R/C797S (nM), Km ATP
[9] = Km ATP, read-out: IC50 WT (nM), Km ATP

Sequence of EGFR Del19/T790M/C797S (P00533 with tags, fused parts or gaps DEL746-750/T790M/C797S): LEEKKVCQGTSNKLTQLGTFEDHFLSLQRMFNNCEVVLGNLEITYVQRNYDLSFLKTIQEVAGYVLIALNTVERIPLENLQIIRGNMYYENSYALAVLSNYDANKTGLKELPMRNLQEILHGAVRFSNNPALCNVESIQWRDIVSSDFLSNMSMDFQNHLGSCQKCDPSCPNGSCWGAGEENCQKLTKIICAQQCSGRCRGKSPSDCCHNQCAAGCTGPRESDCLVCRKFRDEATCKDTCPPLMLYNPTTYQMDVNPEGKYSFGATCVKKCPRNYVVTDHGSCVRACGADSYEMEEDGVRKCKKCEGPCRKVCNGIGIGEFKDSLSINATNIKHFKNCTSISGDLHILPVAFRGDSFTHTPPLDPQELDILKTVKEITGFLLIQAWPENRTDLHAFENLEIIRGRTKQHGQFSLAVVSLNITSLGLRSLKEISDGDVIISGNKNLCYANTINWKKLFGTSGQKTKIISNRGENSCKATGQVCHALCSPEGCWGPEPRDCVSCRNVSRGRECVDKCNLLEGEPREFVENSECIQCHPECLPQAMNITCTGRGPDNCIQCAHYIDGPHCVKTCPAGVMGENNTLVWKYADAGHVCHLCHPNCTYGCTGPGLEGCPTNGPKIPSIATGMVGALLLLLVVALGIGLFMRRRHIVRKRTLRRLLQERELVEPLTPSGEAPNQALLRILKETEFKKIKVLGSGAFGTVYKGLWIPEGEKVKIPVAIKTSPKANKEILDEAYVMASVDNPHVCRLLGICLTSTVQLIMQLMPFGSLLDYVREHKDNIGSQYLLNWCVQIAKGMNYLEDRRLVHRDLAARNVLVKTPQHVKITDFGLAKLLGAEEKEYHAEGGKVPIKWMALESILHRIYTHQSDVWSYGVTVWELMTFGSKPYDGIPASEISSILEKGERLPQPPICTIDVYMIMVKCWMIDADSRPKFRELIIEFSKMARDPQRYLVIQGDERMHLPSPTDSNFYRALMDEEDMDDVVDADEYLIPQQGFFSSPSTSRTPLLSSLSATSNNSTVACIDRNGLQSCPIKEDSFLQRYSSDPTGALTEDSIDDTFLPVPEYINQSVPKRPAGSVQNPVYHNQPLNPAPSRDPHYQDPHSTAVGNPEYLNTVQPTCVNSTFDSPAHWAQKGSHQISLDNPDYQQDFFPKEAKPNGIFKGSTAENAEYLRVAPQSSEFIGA

SMILES	IC50 (EGFR Del19/T790M/C797S; [1]) [nM]	IC50 (EGFR Del19/T790M/C797S; [2]) [nM]	IC50 (EGFR L858R/T790M/C797S; [3]) [nM]	IC50 (EGFR L858R/T790M/C797S; [4]) [nM]	IC50 (EGFR Del19/C797S; [5]) [nM]	IC50 (EGFR Del19/C797S; [6]) [nM]	IC50 (EGFR L858R/C797S; [7]) [nM]	IC50 (EGFR L858R/C797S; [8]) [nM]	IC50 (EGFR wildtype (WT); IC50 WT (nM), 100 μM ATP) [nM]	IC50 (EGFR wildtype (WT); [9]) [nM]
O=S(=O)(C1CC1)n1cc(-c2nccc(Nc3cc(N[C@H]4CC[C@@H](CO)CC4)c(C#Cc4cnn(CCF)c4)cn3)n2)cn1 [Example 379, ((1s,4s)-4-((2-((2-(1-(Cyclopropylsulfonyl)-1H-pyrazol-4-yl)pyrimidin-4-yl)amino)-5-((1-(2-fluoroethyl)-1H-pyrazol-4-yl)ethynyl)pyridin-4-yl)amino)cyclohexyl)methanol]	0.7	0.6	0.8	0.4	3.9	1.9	30.1	1.9	> 10000	9.7
C[C@]1(O)CC[C@H](CNc2cc(Nc3ccnc(-c4cnn(S(=O)(=O)C5CC5)c4)n3)ncc2C#Cc2cnn(CCF)c2)CC1 [Example 380, (1 r,4r)-4-(((2-((2-(1-(Cyclopropylsulfonyl)-1H-pyrazol-4-yl)pyrimidin-4-yl)amino)-5-((1-(2-fluoroethyl)-1H-pyrazol-4-yl)ethynyl)pyridin-4-yl)amino)methyl)-1-methylcyclohexan-1-ol]	1.5	2.4	5.4	2.6	58.7	32.5	1170	32.6	> 10000	114
O=S(=O)(C1CC1)n1cc(-c2nccc(Nc3cc(NC[C@H]4CC[C@H](CO)CC4)c(C#Cc4cnn(CCF)c4)cn3)n2)cn1 [Example 381, ((1 r,4r)-4-(((2-((2-(1-(Cyclopropylsulfonyl)-1H-pyrazol-4-yl)pyrimidin-4-yl)amino)-5-((1-(2-fluoroethyl)-1H-pyrazol-4-yl)ethynyl)pyridin-4-yl)amino)methyl)cyclohexyl)methanol]	3.1	2.9	7.9	3.4	75.5	33.3	1290	37.9	> 10000	226
CNCC1(F)CCN(c2cc(Nc3ccnc(-c4cnn(S(=O)(=O)C5CC5)c4)n3)ncc2C#Cc2cnn(C)c2)CC1 [Example 382, 2-(1-(Cyclopropylsulfonyl)-1H-pyrazol-4-yl)-N-(4-(4-fluoro-4-((methylamino)methyl)piperidin-1-yl)-5-((1-methyl-1H-pyrazol-4-yl)ethynyl)pyridin-2-yl)pyrimidin-4-amine]	0.2	0.2	0.4	0.2	2.9	2.1	32.4	5.5	5000	10.4
Cn1cc(C#Cc2cnc(Nc3ccnc(-c4cnn(S(=O)(=O)C5CC5)c4)n3)cc2N2CCC(F)(CNCCF)CC2)cn1 [Example 383, 2-(1-(Cyclopropylsulfonyl)-1H-pyrazol-4-yl)-N-(4-(4-fluoro-4-(((2-fluoroethyl)amino)methyl)piperidin-1-yl)-5-((1-methyl-1H-pyrazol-4-yl)ethynyl)pyridin-2-yl)pyrimidin-4-amine]	1.2	1	1.2	0.6	8.2	3.7	86.8	14.5	> 10000	40.8
CN(C)C[C@@H]1CCCN(c2cc(Nc3ccnc(-c4cnn(S(=O)(=O)C5CC5)c4)n3)ncc2C#Cc2cnn(C)c2)C1 [Example 384, (S)-2-(1-(Cyclopropylsulfonyl)-1H-pyrazol-4-yl)-N-(4-(3-((dimethylamino)methyl)piperidin-1-yl)-5-((1-methyl-1H-pyrazol-4-yl)ethynyl)pyridin-2-yl)pyrimidin-4-amine]	1.3	–	3.1	–	10.9	–	49.6	–	> 10000	–
CN(C)C[C@@H]1CCCN(c2cc(Nc3ccnc(-c4cnn(S(=O)(=O)C5CC5)c4)n3)ncc2C#Cc2cnn(CCF)c2)C1 [Example 385, (S)-2-(1-(Cyclopropylsulfonyl)-1H-pyrazol-4-yl)-N-(4-(3-((dimethylamino)methyl)piperidin-1-yl)-5-((1-(2-fluoroethyl)-1H-pyrazol-4-yl)ethynyl)pyridin-2-yl)pyrimidin-4-amine]	0.7	–	2.1	–	11.2	–	37.6	–	> 10000	–
